The EC50 is the midpoint of the concentration-response curve. By IC50 is commonly meant the midpoint of a concentration-inhibition curve.

SMILES strings stand for the structures. Activity calls are given as the source filed them.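 The calls were made as follows: active = compounds giving half or more protection of infected cells from virus-caused growth loss, again on retest; inactive = the rest.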 Where a SMILES comes first, the peptide text is derived from it.

In this test the test system is CEM cells HIV-1 protection, formazan growth assay. Put plainly: NCI AIDS Antiviral Assay. Particulars: for IC50: measured here: growth of uninfected CEM cells. Summed up:
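Screen of anti-HIV-1 activity in human CEM cells using a formazan-based growth measurement at five drug concentrations. Hits with 50% or greater protection were repeated, and confirmation required reproducible complete protection.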

`CC[C@@H]1C[C@@H](O)[C@@H]2[C@H](O)[C@H](O)CN2C1`: the EC50 was greater than 200 µM and the concentration for half-maximal inhibition (IC50) was greater than 200 µM.

Consider `O=C1OC(=O)C2C1C(c1ccccc1)N1C3C(=O)OC(=O)C3C(c3ccccc3)N21` (stereo not drawn), for which the result was inactive.

Regarding `CC(C)=CC(=O)C1c2cccc(O)c2C(=O)c2c(O)cc(C)cc21` (stereo not drawn), the EC50 is greater than 30.9 µM and the IC50 was 10.2 µM.

Regarding `COc1cc(OC)c(/C=C\c2cc(/C=C/c3c(OC)cc(OC)cc3OC)c3ccccc3[n+]2C)c(OC)c1`, the EC50 was greater than 7.94 µM and the IC50 was determined as 0.355 µM.

As for `O=C1NNC2NC(=O)C3(NN2C1=O)c1ccccc1-c1ccccc13` (stereo not drawn), the EC50 is greater than 100 µM and the IC50 was greater than 100 µM.

Take `CCN1C[C@]2(COC)CCC(=O)C34[C@@H]5C[C@@H]6C(O)[C@@H]5[C@](O)(C[C@@H]6OC)[C@@H](C(OC)[C@@H]32)[C@H]14` (stereo partly drawn): the outcome was inactive.

On to `CC1(C)CC2CC(CC(C)(C)C2=O)C1=O`, for which the EC50 was greater than 871 µM and the IC50 was greater than 871 µM.

For the compound `CCOC(=O)CCC(=O)Oc1ccc2c(c1OC(=O)CCC(=O)OCC)C(=O)c1ccccc1C2=O`, the EC50 is greater than 87.1 µM and the IC50 came to 46.8 µM.

With `O=C(O)CS(=O)(=O)O`, the EC50 is greater than 200 µM and the IC50 is greater than 200 µM.

Regarding `CCOc1ccc(C(C)c2cc3c(cc2OC)OCO3)cc1` (stereo not drawn), the EC50 is greater than 33.1 µM and the concentration for half-maximal inhibition (IC50) amounted to 0.468 µM.

Regarding `COc1cccc(N2C(=O)CC(Sc3ccccc3N)C2=O)c1` (stereo not drawn), the EC50 is greater than 200 µM and the IC50 was greater than 200 µM.

As for `CCCCCCc1nn2c(-c3ccc(C)cc3)nnc2s1`, the EC50 is greater than 200 µM and the IC50 is greater than 200 µM.

For `CC1CCCC2(C1)OCC(O)CO2` (stereo not drawn), the result was inactive.

Regarding `CN=C(Nc1cccc(C(F)(F)F)c1)SCc1ccc(N=C=S)cc1`, the outcome was inactive.

Turning to `O=c1[nH]n2c(=O)cc[nH]c2c1-c1nnns1`, the EC50 was greater than 30.9 µM and the IC50 was greater than 30.9 µM.

On to `Cc1c(/C=N/NS(=O)(=O)c2ccccc2)no[n+]1[O-]`, for which the EC50 is greater than 891 µM and the IC50 was greater than 200 µM.

`O=[N+]([O-])c1ccc(Cl)cc1N/N=C/c1cccc2cccnc12`: the EC50 is greater than 200 µM and the IC50 was greater than 200 µM.

As for `O=C(/C=C/c1ccccc1)CCN1CCN(CCC(=O)/C=C/c2ccccc2)CC1`, the EC50 is greater than 200 µM and the IC50 worked out at 1.51 µM.

For `Cc1nn(C(=O)c2ccncc2)c2c1C(c1ccccc1)SC(N)=N2` (stereo not drawn), the EC50 was 28.2 µM and the IC50 is greater than 100 µM.

On to `CC(C)CC(NC(=O)CNC(=O)C(CC(C)C)NC(=O)C(Cc1c[nH]cn1)NC(=O)C(CC(N)=O)NC(=O)C1CCCN1C(=O)C(C)NC(=O)C(Cc1ccc(O)cc1)NC(=O)C(C)NC(=O)C1CCCN1C(=O)C(CCC(=O)O)NC(=O)C(CC(=O)O)NC(=O)C(Cc1ccccc1)NC(=O)C(CC(N)=O)NC(=O)C(C)N)C(=O)O` (stereo not drawn) (H-ANFDEPAYAPNHLGL-OH; configuration not given here), for which the EC50 is greater than 38 µM and the IC50 was greater than 38 µM.

As to `O=c1c(=[n+]2ccc(=C([O-])c3ccccc3)cc2)/c(=N/S(=O)(=O)c2ccccc2)c(=O)c2ccccc12`, the EC50 was greater than 200 µM and the IC50 is 6.17 µM.

On to `O=C(CCCCCCCCC(=O)NN1C(=O)/C(=C\c2ccc(O)c(O)c2)SC1c1c(O)ccc2ccccc12)NN1C(=O)C(=Cc2ccc(O)c(O)c2)SC1c1c(O)ccc2ccccc12` (stereo not drawn), for which the EC50 is greater than 200 µM and the IC50 came out at 1 µM.

Turning to `O=C1NC(=NC2CCCCC2)C2(CCN(CCCC3(c4ccc(F)cc4)OCCO3)CC2)N1c1ccccc1`, the EC50 is greater than 200 µM and the IC50 worked out at 102 µM.

As for `CCOP(=O)(OCC)C1=NC=CC=CC1n1c(-c2ccccc2)nn(CC)c1=O` (stereo not drawn), the EC50 is greater than 603 µM and the IC50 turned out to be 417 µM.

As to `COC(=O)[C@@H]1C[C@]2(CC=O)c3ccccc3N(S(=O)(=O)c3ccccc3)[C@@H]2N1C(=O)OC`, the EC50 was greater than 100 µM and the IC50 came to 70.8 µM.

As for `Cc1[nH]c2ccccc2c1C1Cc2ccccc2N1C(=O)/C=C/C=C/c1ccccc1` (stereo not drawn), the EC50 is greater than 9.33 µM and the IC50 is greater than 9.33 µM.

`O=C1NCC2(CCN(CC3COc4ccccc4O3)CC2)N1c1ccccc1` (stereo not drawn): the EC50 was greater than 200 µM and the IC50 was greater than 200 µM.

On to `CC(=O)OCC(OC(C)=O)C(OC(C)=O)C(/C=N/N(C(C)=O)S(=O)(=O)c1ccc(/C=C2\NC(=O)NC2=O)cc1)OC(C)=O` (stereo not drawn), for which the EC50 was greater than 200 µM and the IC50 was determined as 105 µM.

Regarding `CC(C)OP(=O)(NC(=S)c1ccccc1)OC(C)C`, the EC50 was greater than 316 µM and the IC50 came out at 295 µM.

`CC(C)CCCC(C)[C@H]1CC[C@@H]2[C@H]3CC[C@H]4C[C@@H](CCC=C(c5cc(Cl)c(OCc6cccc([N+](=O)[O-])c6)c(C(=O)OCc6cccc([N+](=O)[O-])c6)c5)c5cc(Cl)c(OCc6cccc([N+](=O)[O-])c6)c(C(=O)OCc6cccc([N+](=O)[O-])c6)c5)CC[C@]4(C)[C@@H]3CC[C@]12C` (stereo partly drawn): the EC50 is greater than 100 µM and the IC50 was greater than 100 µM.

Take `CCCCCCCCCCCCCC(=O)NO`: the EC50 was greater than 20.4 µM and the IC50 was greater than 20.4 µM.

Consider `O=C1CSC(c2ccccc2)N1c1ccc(-n2c(-c3ccccc3)nc3ccccc3c2=O)cc1` (stereo not drawn), for which the EC50 is greater than 200 µM and the IC50 was 35.5 µM.

In the case of `CCCN1C(=O)CNC(=O)c2[nH]cnc21`, the outcome was inactive.

Consider `COc1ccc(C(O)C(=O)c2nc3ccc(Cl)cc3[nH]c2=O)cc1` (stereo not drawn), for which the result was inactive.

Consider `c1ccc(C(=C2C3CCC2C2CSCC32)c2ccccc2)cc1` (stereo not drawn), for which the EC50 is greater than 93.3 µM and the IC50 stood at 46.8 µM.

For `N#CN=C(N(Cc1ccccc1)Cc1ccccc1)N(Cc1ccccc1)Cc1ccccc1`, the EC50 was greater than 39.8 µM and the IC50 is greater than 39.8 µM.

In the case of `C=CC(C)(C)c1c(OC)oc2ccc(OC)c(C)c2c1=O`, the EC50 is greater than 200 µM and the IC50 was determined as 38.9 µM.

For the compound `O=C(O)C(=C/C=C/c1ccccc1)C(=O)O`, the result was inactive.

For `CCC1(N)C(=O)OCc2c1cc1n(c2=O)Cc2cc3ccccc3nc2-1` (stereo not drawn), the EC50 was greater than 200 µM and the IC50 came to 0.813 µM.

As to `CCOC(=O)/C(Cl)=C1\SN(C(=O)OCC)N=C1C`, the EC50 is greater than 102 µM and the IC50 was found to be 10.7 µM.

As to `Cc1[nH]n(-c2nc(-c3ccccc3)cc(=O)[nH]2)c(=O)c1CCO`, the EC50 is greater than 200 µM and the IC50 is greater than 200 µM.

For the compound `C=CC12CCC(CC1)n1c(=O)n(C)c(=O)n12`, the EC50 is greater than 200 µM and the IC50 was greater than 200 µM.

As to `Cn1cc(NC(=O)Nc2cc(C(=O)Nc3cc(C(=O)Nc4ccc(S(=O)(=O)O)c5cc(S(=O)(=O)O)ccc45)n(C)c3)n(C)c2)cc1C(=O)Nc1cc(C(=O)Nc2ccc(S(=O)(=O)O)c3cc(S(=O)(=O)O)ccc23)n(C)c1`, the EC50 was 12.3 µM and the IC50 was 61.7 µM.

Turning to `COC(=O)c1ccc2c(c1)CC1(C2)Cc2ccc3c(c2C1)CCC3` (stereo not drawn), the EC50 was greater than 200 µM and the IC50 is greater than 200 µM.

Consider `CCOP(=O)(OCC)/C(C#N)=C/c1cn(C)cn1`, for which the EC50 was greater than 200 µM and the IC50 is greater than 200 µM.

For the compound `COc1ccc(/C=C2\N=C(c3ccccc3)N(Nc3nnc(NN4C(=O)/C(=C/c5ccc(OC)cc5)N=C4c4ccccc4)c4ccccc34)C2=O)cc1`, the outcome was inactive.

Turning to `O=C(/C=C/c1ccccc1)CC1OC(=O)c2ccccc21` (stereo not drawn), the EC50 is greater than 245 µM and the IC50 was found to be 129 µM.

Regarding `CCOc1ccc(C2OCCC(C)O2)cc1OC` (stereo not drawn), the EC50 is greater than 200 µM and the IC50 was greater than 200 µM.

For the compound `C[N+]1(C)C/C(=C/c2ccc(F)cc2)C(=O)/C(=C\c2ccc(F)cc2)C1`, the EC50 is greater than 537 µM and the half-maximal inhibitory concentration (IC50) was found to be 97.7 µM.

As for `Cn1c(=O)oc2ccc(S(=O)(=O)Nc3ccc(Cl)cc3[N+](=O)[O-])cc21`, the EC50 was greater than 200 µM and the IC50 was determined as 28.2 µM.

Consider `CC(=O)Nc1ccc(S(=O)(=O)/N=C(/C2CCCC2)N2CCCC2)cc1`, for which the EC50 was greater than 200 µM and the IC50 is greater than 200 µM.

For the compound `C=CCNC(=O)N(CCC)CCCC(NC(C)=O)C(=O)NCc1ccccc1` (stereo not drawn), the EC50 is greater than 646 µM and the IC50 is greater than 646 µM.

Consider `COc1ccc(C2c3cc(OC)c(OC)cc3CC3C(=O)OCC32)cc1OC` (stereo not drawn), for which the EC50 was greater than 200 µM and the half-maximal inhibitory concentration (IC50) is greater than 200 µM.

Regarding `Cc1ccc(S(=O)(=O)N2CCSCCN(S(=O)(=O)c3ccc(C)cc3)CCN(S(=O)(=O)c3ccc(C)cc3)CC2)cc1`, the EC50 is greater than 4.17 µM and the IC50 is greater than 4.17 µM.

Take `O=S(OCC1COS(=O)O1)OCC1COS(=O)O1` (stereo not drawn): the EC50 was greater than 776 µM and the IC50 turned out to be 77.6 µM.

As to `CCOC(=O)c1s/c(=N\Nc2nc3ccccc3cc2C2OCCO2)n(Cc2ccccc2)c1C`, the EC50 is greater than 5.5 µM and the IC50 is greater than 5.5 µM.

Take `N#Cc1ccc(Oc2ccccc2)cc1C#N`: the EC50 was greater than 45.7 µM and the IC50 is greater than 45.7 µM.

As to `CC(C(=O)Oc1ccc2ccccc2c1-c1c(O)ccc2ccccc12)c1ccccc1` (stereo not drawn), the EC50 was greater than 2.51 µM and the IC50 is greater than 2.51 µM.

With `O=C(c1ccccc1)N1CCN(C(=S)NC2CCCCC2)C1=S`, the EC50 was greater than 200 µM and the IC50 was 12 µM.

Turning to `COc1cc(CCCC(O)COc2cccc3c2C2(O)CCCCCC32)cc(OC)c1` (stereo not drawn), the EC50 was greater than 200 µM and the IC50 is 12.6 µM.

`Cc1cc(C)c(C(=O)c2ccccc2C(=O)O)c(C)c1` yielded an EC50 greater than 200 µM and an IC50 greater than 200 µM.

`CN1CCN(c2c(Cl)cc(Cl)c3[nH]c4ccccc4c(=O)c23)CC1`: the EC50 is greater than 2 µM and the IC50 was determined as 0.977 µM.

On to `COc1ccc(C(=O)O/N=C2\CCCC\C2=C/c2ccccc2)cc1`, for which the outcome was inactive.

On to `Cc1cc(C)c2c(c1)C/C(=C\c1ccccc1C(=O)O)C2=O`, for which the outcome was inactive.

For `CC1CN=C(NS(=O)(=O)c2cc(C(=O)Nc3ccccc3)c(Cl)cc2S)NN1` (stereo not drawn), the EC50 was greater than 200 µM and the IC50 was 19.1 µM.

As for `C[Si](C)(C)/C(I)=C/CO`, the result was inactive.

As to `COc1ccc(S(=O)(=O)N/N=C/c2cc(I)cc([N+](=O)[O-])c2O)cc1OC`, the EC50 was greater than 355 µM and the IC50 came out at 60.3 µM.

The values are drawn from PubChem BioAssay AID179 (DTP/NCI, 2004).
